From PubChem BioAssay AID330 (DTP/NCI, 2004)
“And” between values parts separate entries of the source, which are not always exact repeats. Identical values can stand only once. Toxic doses and inconclusive results are not listed. How the source made its calls: active means survival T/C of 150% or more; inactive means T/C below 125% in these data.

System: P388 leukemia ip, CD2F1 mice, survival T/C
Test: NCI In Vivo Anticancer Drug Screen. Data for tumor model P388 Leukemia (intraperitoneal) in CD2F1 (CDF1) mice
Settings: endpoint: median survival time, higher = longer survival
Summary of the method: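 Mice carrying the transplanted tumor received test compound or vehicle. Survival was recorded in each group, and the value is the treated-group measurement divided by that of the vehicle-treated control group.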

[1] = dose: 50.0 mg/kg/injection, schedule: Q01DX009 (ip), vehicle: Klucel (hydroxypropylcellulose) (HPC)
[2] = dose: 100.0 mg/kg/injection, schedule: Q01DX009 (ip), vehicle: Klucel (hydroxypropylcellulose) (HPC)
[3] = dose: 100.0 mg/kg/injection, schedule: Q01DX001 (ip), vehicle: saline with Tween-80
[4] = dose: 200.0 mg/kg/injection, schedule: Q01DX001 (ip), vehicle: saline with Tween-80
[5] = dose: 400.0 mg/kg/injection, schedule: Q01DX001 (ip), vehicle: saline with Tween-80
[6] = dose: 60.0 mg/kg/injection, schedule: Q01DX005 (ip), vehicle: saline with Tween-80
[7] = dose: 120.0 mg/kg/injection, schedule: Q01DX005 (ip), vehicle: saline with Tween-80
[8] = dose: 240.0 mg/kg/injection, schedule: Q01DX005 (ip), vehicle: saline with Tween-80
[9] = dose: 50.0 mg/kg/injection, schedule: Q01DX005 (ip), vehicle: saline with Tween-80
[10] = dose: 100.0 mg/kg/injection, schedule: Q01DX005 (ip), vehicle: saline with Tween-80
[11] = dose: 25.0 mg/kg/injection, schedule: Q01DX005 (ip), vehicle: Klucel (hydroxypropylcellulose) (HPC)
[12] = dose: 50.0 mg/kg/injection, schedule: Q01DX005 (ip), vehicle: Klucel (hydroxypropylcellulose) (HPC)
[13] = dose: 100.0 mg/kg/injection, schedule: Q01DX005 (ip), vehicle: Klucel (hydroxypropylcellulose) (HPC)
[14] = dose: 200.0 mg/kg/injection, schedule: Q01DX005 (ip), vehicle: Klucel (hydroxypropylcellulose) (HPC)
[15] = dose: 100.0 mg/kg/injection, schedule: Q01DX001 (ip), vehicle: Klucel (hydroxypropylcellulose) (HPC)
[16] = dose: 200.0 mg/kg/injection, schedule: Q01DX001 (ip), vehicle: Klucel (hydroxypropylcellulose) (HPC)

Measured: T/C

CC(=O)CC(C)=O.CC(=O)CC(C)=O.[Cl][Sn][c]1ccccc1
inactive: dose: 25.0 mg/kg/injection, schedule: Q01DX005 (ip), vehicle: saline 109 % of control and 116 % of control | dose: 50.0 mg/kg/injection, schedule: Q01DX005 (ip), vehicle: saline 110 % of control and 122 % of control | dose: 100.0 mg/kg/injection, schedule: Q01DX005 (ip), vehicle: saline 109 % of control and 115 % of control | dose: 200.0 mg/kg/injection, schedule: Q01DX005 (ip), vehicle: saline 107 % of control and 111 % of control and 113 % of control

C/C=C/C[P+](Cc1cccc(C)c1)(c1ccccc1)c1ccccc1
inactive: dose: 0.78 mg/kg/injection, schedule: Q01DX009 (ip), vehicle: saline 101 % of control | dose: 1.56 mg/kg/injection, schedule: Q01DX009 (ip), vehicle: saline 95 % of control | dose: 3.13 mg/kg/injection, schedule: Q01DX009 (ip), vehicle: saline 111 % of control

O=C(COc1ccc(Cl)cc1Cl)Nc1ccc(I)cc1C(=O)O
inactive: [1] 94 % of control | [2] 92 % of control | dose: 200.0 mg/kg/injection, schedule: Q01DX009 (ip), vehicle: Klucel (hydroxypropylcellulose) (HPC) 91 % of control

OC1OC2CCC3C2C2C1C1C4CCC5OC(O)C6C3C2C1C6C54 (centres undefined)
inactive: dose: 20.0 mg/kg/injection, schedule: Q01DX005 (ip), vehicle: saline with Tween-80 97 % of control | dose: 40.0 mg/kg/injection, schedule: Q01DX005 (ip), vehicle: saline with Tween-80 100 % of control | dose: 80.0 mg/kg/injection, schedule: Q01DX005 (ip), vehicle: saline with Tween-80 100 % of control

FC(F)(F)C(F)(F)C(F)(F)c1nnc(-c2ccc(Cl)cc2Cl)o1
inactive: [3] 95 % of control | [4] 100 % of control | [5] 96 % of control

COc1ccc2nccc(NCCCN3CCN(CCCNc4ccnc5ccc(OC)cc45)CC3)c2c1
inactive: dose: 3.75 mg/kg/injection, schedule: Q01DX005 (ip), vehicle: water 104 % of control | dose: 7.5 mg/kg/injection, schedule: Q01DX005 (ip), vehicle: water 107 % of control | dose: 15.0 mg/kg/injection, schedule: Q01DX005 (ip), vehicle: water 99 % of control

CC(C)=Cc1ccccc1C1(C)C(c2ccccc2)=C1c1ccccc1
inactive: dose: 100.0 mg/kg/injection, schedule: Q04DX002 (ip), vehicle: Klucel (hydroxypropylcellulose) (HPC) 100 % of control | dose: 200.0 mg/kg/injection, schedule: Q04DX002 (ip), vehicle: Klucel (hydroxypropylcellulose) (HPC) 98 % of control | dose: 400.0 mg/kg/injection, schedule: Q04DX002 (ip), vehicle: Klucel (hydroxypropylcellulose) (HPC) 98 % of control

Cc1cccc(C(=O)O)n1
inactive: dose: 100.0 mg/kg/injection, schedule: Q04DX003 (ip), vehicle: saline 104 % of control | dose: 200.0 mg/kg/injection, schedule: Q04DX003 (ip), vehicle: saline 100 % of control | dose: 400.0 mg/kg/injection, schedule: Q04DX003 (ip), vehicle: saline 109 % of control

O=C1Cc2ccccc2C(=O)N1NCCO
inactive: [3] 103 % of control | [4] 102 % of control | [5] 94 % of control

COc1cc2c(=O)n3c4c(cccc4c2cc1OC)CC3
inactive: dose: 25.0 mg/kg/injection, schedule: Q01DX009 (ip), vehicle: other 98 % of control | dose: 50.0 mg/kg/injection, schedule: Q01DX009 (ip), vehicle: other 91 % of control | dose: 100.0 mg/kg/injection, schedule: Q01DX009 (ip), vehicle: other 91 % of control | dose: 200.0 mg/kg/injection, schedule: Q01DX009 (ip), vehicle: other 89 % of control | dose: 400.0 mg/kg/injection, schedule: Q01DX009 (ip), vehicle: other 96 % of control

Cc1nnc(NC/C=C/c2ccccc2)s1
inactive: [6] 100 % of control | [7] 96 % of control | [8] 95 % of control

COc1ccc(C(CC(=O)NCCCl)CC(=O)NCCCl)cc1
inactive: dose: 100.0 mg/kg/injection, schedule: Q01DX001 (ip), vehicle: suspension in saline 101 % of control | dose: 200.0 mg/kg/injection, schedule: Q01DX001 (ip), vehicle: suspension in saline 100 % of control

COC(=O)c1nc2nnc(NC(=O)Nc3ccc(Cl)cc3)n2c(-c2ccccc2)c1C
inactive: [6] 96 % of control | [7] 95 % of control

Cc1ccc(C2(c3ccccc3)OC3OC=CC32)cc1 (centres undefined)
inactive: dose: 25.0 mg/kg/injection, schedule: Q01DX005 (ip), vehicle: saline with Tween-80 97 % of control | [9] 101 % of control | [6] 96 % of control | [10] 100 % of control | [8] 96 % of control

COc1cc(N=Nc2ccc(N=Nc3ccc4cc(S(=O)(=O)O)cc(S(=O)(=O)O)c4c3)c(C)c2)c(C)cc1NC(=O)c1ccc(NC(=O)c2ccc(N)cc2)cc1
inactive: [11] 103 % of control and 108 % of control | [12] 107 % of control and 111 % of control and 117 % of control | [13] 103 % of control and 116 % of control | [14] 107 % of control and 112 % of control and 97 % of control

CCN(CC)CCNc1cccc2c(SC)ccnc12
inactive: [9] 101 % of control | [10] 104 % of control | dose: 200.0 mg/kg/injection, schedule: Q01DX005 (ip), vehicle: saline with Tween-80 101 % of control

COc1c(C)cc(C)c(CCl)c1-c1c(CCl)c(C)cc(C)c1OC
inactive: [15] 90 % of control | [16] 93 % of control

c1cc[n+](Cc2c3ccccc3cc3c2ccc2ccccc23)cc1
inactive: dose: 6.25 mg/kg/injection, schedule: Q01DX005 (ip), vehicle: Klucel (hydroxypropylcellulose) (HPC) 112 % of control | dose: 12.5 mg/kg/injection, schedule: Q01DX005 (ip), vehicle: Klucel (hydroxypropylcellulose) (HPC) 112 % of control | [11] 110 % of control

COc1cc[n+](CC(=O)c2c[nH]c3ccccc23)cc1
inactive: [1] 103 % of control | [2] 109 % of control

CC1=CC(=O)C(O)=C/C1=C\C=C\c1ccccc1
inactive: dose: 2.5 mg/kg/injection, schedule: Q01DX009 (ip), vehicle: saline with Tween-80 110 % of control | dose: 5.0 mg/kg/injection, schedule: Q01DX009 (ip), vehicle: saline with Tween-80 104 % of control | dose: 10.0 mg/kg/injection, schedule: Q01DX009 (ip), vehicle: saline with Tween-80 103 % of control

NNc1nc2ccccc2s1
inactive: dose: 12.5 mg/kg/injection, schedule: Q01DX009 (ip), vehicle: saline with Tween-80 105 % of control | dose: 25.0 mg/kg/injection, schedule: Q01DX009 (ip), vehicle: saline with Tween-80 107 % of control | dose: 50.0 mg/kg/injection, schedule: Q01DX009 (ip), vehicle: saline with Tween-80 98 % of control

Cc1nc2ccccc2nc1CBr
inactive: dose: 5.56 mg/kg/injection, schedule: Q01DX009 (ip), vehicle: saline with Tween-80 110 % of control | dose: 8.33 mg/kg/injection, schedule: Q01DX009 (ip), vehicle: saline with Tween-80 120 % of control | dose: 18.7 mg/kg/injection, schedule: Q01DX009 (ip), vehicle: saline with Tween-80 120 % of control

CC(=O)Nc1c(O)c2ccccc2c2ccccc12
inactive: [12] 87 % of control | [13] 92 % of control | [14] 86 % of control

NC(=S)c1ccc(N=Cc2cccc([N+](=O)[O-])c2)cc1
inactive: [15] 98 % of control | [16] 124 % of control | dose: 400.0 mg/kg/injection, schedule: Q01DX001 (ip), vehicle: Klucel (hydroxypropylcellulose) (HPC) 104 % of control
